One assay deals with PCSK9 protein. Put plainly: Influence of test compound on PCSK9 protein production amount in HepG2 cells (ELISA). The following applies: about 24 hours treatment, intracellular PCSK9 protein by ELISA, read-out: IC50 (50% PCSK9 production-suppressing concentration). Format: cell-based, human. On the procedure: A test compound was added to culture supernatant of cells of the human liver cancer-derived cell strain, HepG2 cells, and intracellular amount of the PCSK9 protein was measured by the enzyme-linked immunosorbent assay (ELISA) after 24 hours. Specifically, the HepG2 cells were inoculated into wells of a 96-well microplate at a density of 5 to 7.5×10^4 cells/well, and the culture supernatant was exchanged with the MEM medium containing 10% lipoprotein deficient serum (LPDS) on the next day. After the cells were further cultured for one day, the culture supernatant was exchanged with the 10% LPDS-containing MEM medium containing a test compound, and the cells were treated with the compound for about 24 hours. The medium for treating the cells was prepared by dissolving the test compound in dimethyl sulfoxide (DMSO), and adding the resulting solution to the 10% LPDS-containing medium. The medium for treating cells for control was prepared by adding DMSO to the 10% LPDS-containing medium at the same final concentration. After completion of the treatment of the cells, a solubilization buffer (1% Nonidet P-40 in phosphate buffered saline) was added to the cells to extract proteins, and they were used as a sample.
The PCSK9 protein concentration and the total protein concentration in the sample were measured by using Human PCSK9 ELISA Kit produced by R&D Systems (Cat. No. DPC900), and BCA Protein Assay Reagent. Kit produced by Thermo Scientific (Cat. No. 23227) according to the protocols described in the attached manuals, respectively. The PCSK9 protein concentration in each sample was calculated as a concentration per unit mass of proteins. Then, by using PCSK9 production suppressing ratios at various concentrations obtained in accordance with the equation mentioned below, 50% PCSK9 production-suppressing concentration (IC50) of each compound was calculated with a linear regression equation.
Equation: PCSK9 production-suppressing ratio (%)=[(Average PCSK9 protein concentration in control group−Average PCSK9 protein concentration in test compound-treated group)/Average PCSK9 protein concentration in control group]×100
A general note: An ELISA detects its analyte on a solid surface through an enzyme-linked reagent.

Assay [1] deals with dietary hyperlipidemia hamsters. The assay is described as follows: Efficacy test in dietary hyperlipidemia hamsters (LDL cholesterol decreasing ratio). Format: in vivo, Slc:Syrian male hamsters. The conditions noted are these: oral once a day for seven days, high fat diet hamsters. How it is done: As test animals, the Slc:Syrian male hamsters were used. In order to create dietary hyperlipidemia models, the hamsters were fed ad libitum with a high fat diet (mixed diet of 0.5% cholesterol and 10% palm oil) for a period from two weeks before the start of the administration of the test compound to the end of the experiment. Blood was collected one day before the day of the start of the administration, and the total blood cholesterol concentration was measured by the direct method using an automatic analyzer. On the basis of this total blood cholesterol concentration, the animals were divided into groups. From the next day, the test compound was orally administered once a day for seven days, and the animals were dissected on the day following the day of the final administration. The LDL-cholesterol concentration in the collected blood was measured by the direct method using an automatic analyzer, and LDL cholesterol decreasing ratio was calculated in accordance with the following equation for each group.
Equation: LDL cholesterol decreasing ratio (%)=[(Average LDL-cholesterol concentration of control group−Average LDL-cholesterol concentration of test compound-administered group)/Average LDL-cholesterol concentration of control group]×100

Where only a bound is given, the exact number is not on record here.

Turning to `COc1ccc2cc3[n+](cc2c1OC)CCc1cc2c(cc1-3)OCO2` [Berberine chloride, reference compound], in the assay with PCSK9 protein, the IC50 is over 10000 nM.

As to `FC(F)(F)c1ccc(-c2nc3ccc(Cl)c(C(F)(F)F)c3o2)cc1` [Example 1, 6-Chloro-7-trifluoromethyl-2-(4-trifluoromethylphenyl)benzoxazole], the IC50 with PCSK9 protein came to 0.802 nM.

`Fc1c(C(F)(F)F)ccc2nc(-c3ccc(C(F)(F)F)cc3)oc12` [Example 3, 7-Fluoro-6-trifluoromethyl-2-(4-trifluoromethylphenyl)benzoxazole]: the IC50 with PCSK9 protein amounted to 8.19 nM.

Take `FC(F)(F)c1ccc(-c2nc3c(Cl)c(C(F)(F)F)ccc3o2)cc1` [Example 4, 4-Chloro-5-trifluoromethyl-2-(4-trifluoromethylphenyl)benzoxazole]: the IC50 with PCSK9 protein worked out at 0.426 nM.

Turning to `FC(F)(F)c1ccc(-c2nc3ccc(I)c(Cl)c3o2)cc1` [Example 6, 7-Chloro-6-iodo-2-(4-trifluoromethylphenyl)benzoxazole], the IC50 with PCSK9 protein is 2.5 nM. The “LDL cholesterol decreasing ratio (%)” value in assay [1] (dose 5 mg/kg) worked out at 41.8%.

For the compound `FC(F)(F)c1ccc(-c2nc3ccc(C(F)(F)F)c(Cl)c3o2)cc1` [Example 7, 7-Chloro-6-trifluoromethyl-2-(4-trifluoromethylphenyl)benzoxazole], the IC50 in the assay on PCSK9 protein was 0.036 nM. In addition, the “LDL cholesterol decreasing ratio (%)” value in assay [1] (dose 0.01 mg/kg) is on record as 45.5%; in assay [1] (dose 0.04 mg/kg), 56.9%.

With `FC(F)(F)c1ccc(-c2nc3c(C(F)(F)F)ccc(Cl)c3o2)cc1` [Example 8, 7-Chloro-4-trifluoromethyl-2-(4-trifluoromethylphenyl)benzoxazole], the IC50 with PCSK9 protein came to 0.153 nM.

For `N#Cc1ccc2nc(-c3ccc(C(F)(F)F)cc3)oc2c1Cl` [Example 9, 7-Chloro-6-cyano-2-(4-trifluoromethylphenyl)benzoxazole], the IC50 with PCSK9 protein stood at 0.0182 nM.

For the compound `N#Cc1cc(Cl)c2nc(-c3ccc(C(F)(F)F)cc3)oc2c1` [Example 11, 4-Chloro-6-cyano-2-(4-trifluoromethylphenyl)benzoxazole], the IC50 with PCSK9 protein is 1.34 nM.

As for `Fc1c(Cl)cc2nc(-c3ccc(C(F)(F)F)cc3)oc2c1Cl` [Example 12, 5,7-Dichloro-6-fluoro-2-(4-trifluoromethylphenyl)benzoxazole], the IC50 in the assay with PCSK9 protein was 2.94 nM.

As for `FC(F)(F)c1ccc(-c2nc3ccc(C4CC4)c(C(F)(F)F)c3o2)cc1` [Example 14, 6-Cyclopropyl-7-trifluoromethyl-2-(4-trifluoromethylphenyl)benzoxazole], the IC50 in the assay on PCSK9 protein came out at 4.54 nM.

For `CC(=O)Nc1ccc2nc(-c3ccc(C(F)(F)F)cc3)oc2c1C(F)(F)F` [Example 16, 6-Acetamido-7-trifluoromethyl-2-(4-trifluoromethylphenyl)benzoxazole], the IC50 in the assay on PCSK9 protein is 2.08 nM.

In the case of `O=C(O)CCC(=O)Nc1ccc2nc(-c3ccc(C(F)(F)F)cc3)oc2c1C(F)(F)F` [Example 18, 6-(3-Carbonylpropanamido)-7-trifluoromethyl-2-(4-trifluoromethylphenyl)benzoxazole], in the assay on PCSK9 protein, the IC50 stood at 16.3 nM.

For `N#Cc1ccc2nc(-c3ccc(C(F)(F)F)cc3)oc2c1C(F)(F)F` [Example 19, 6-Cyano-7-trifluoromethyl-2-(4-trifluoromethylphenyl)benzoxazole], the IC50 with PCSK9 protein is 0.188 nM. Also, the “LDL cholesterol decreasing ratio (%)” value in assay [1] (dose 1 mg/kg) was determined as 35.2%.

For the compound `FC(F)(F)c1ccc(-c2nc3ccc(NC4CC4)c(C(F)(F)F)c3o2)cc1` [Example 20, 6-(Cyclopropylamino)-7-trifluoromethyl-2-(4-trifluoromethylphenyl)benzoxazole], the IC50 in the assay on PCSK9 protein came out at 3.95 nM.

Consider `OCCNc1ccc2nc(-c3ccc(C(F)(F)F)cc3)oc2c1C(F)(F)F` [Example 21, 6-(2-Hydroxyethylamino)-7-trifluoromethyl-2-(4-trifluoromethylphenyl)benzoxazole], for which, in the assay with PCSK9 protein, the IC50 worked out at 5.85 nM.

Turning to `COc1cc(C#N)c(Cl)c2oc(-c3ccc(C(F)(F)F)cc3)nc12` [Example 22, 7-Chloro-6-cyano-4-methoxy-2-(4-trifluoromenthylphenyl)benzoxazole], the IC50 in the assay with PCSK9 protein is 99 nM.

Turning to `CCc1nc2c(ccc3oc(-c4ccc(C(F)(F)F)cc4)nc32)o1` [Example 23, 2-Ethyl-7(4-trifluoromethylphenyl)benzo[2,1-d:3,4-d′]bisoxazole], in the assay with PCSK9 protein, the IC50 was determined as 52.3 nM.

For `FC(F)(F)c1ccc(-c2nc3ccc(C(F)(F)F)cc3o2)cc1` [Example 24, 6-(Trifluoromethyl)-2-[4-(trifluoromethyl)phenyl]benzoxazole], in the assay on PCSK9 protein, the IC50 came to 21.4 nM. Moreover, the “LDL cholesterol decreasing ratio (%)” value in assay [1] (dose 1 mg/kg) is 32.6%.

Regarding `FC(F)(F)c1ccc(-c2nc3cccc(C(F)(F)F)c3o2)cc1` [Example 25, 7-(Trifluoromethyl)-2-[4-(trifluoromethyl)phenyl]benzoxazole], the IC50 in the assay with PCSK9 protein turned out to be 24.5 nM.

With `FC(F)(F)c1ccc(-c2nc3cc(Cl)c(C(F)(F)F)cc3o2)cc1` [Example 27, 5-Chloro-6-(trifluoromethyl)-2-[4-(trifluoromethyl)phenyl]benzoxazole], the IC50 with PCSK9 protein amounted to 12.3 nM.

On to `FC(F)(F)c1ccc(-c2nc3cc(C(F)(F)F)cc(Cl)c3o2)cc1` [Example 28, 7-Chloro-5-(trifluoromethyl)-2-[4-(trifluoromethyl)phenyl]benzoxazole], for which the IC50 with PCSK9 protein turned out to be 1.35 nM. The “LDL cholesterol decreasing ratio (%)” value in assay [1] (dose 0.2 mg/kg) stood at 63.6%.

For the compound `N#Cc1ccc2nc(-c3ccc(C(F)(F)F)cc3)oc2c1` [Example 29, 6-Cyano-2-[4-(trifluoromethyl)phenyl]benzoxazole], the IC50 in the assay on PCSK9 protein is 27 nM.

On to `FC(F)(F)c1ccc(-c2nc3c(ccc4cc[nH]c43)o2)cc1` [Example 31, 2-(4-Trifluoromethylphenyl)-8H-pyrrolo[2,3-e]benzoxazole], for which the IC50 in the assay on PCSK9 protein was found to be 29.7 nM.

Take `Nc1ccc(Br)c2oc(-c3ccc(C(F)(F)F)cc3)nc12` [Example 33, 4-Amino-7-bromo-2-(4-trifluoromethylphenyl)benzoxazole]: in the assay with PCSK9 protein, the IC50 is 4.96 nM.

With `Nc1c(Cl)cc(Cl)c2oc(-c3ccc(C(F)(F)F)cc3)nc12` [Example 34, 4-Amino-5,7-dichloro-2-(4-trifluoromethylphenyl)benzoxazole], in the assay on PCSK9 protein, the IC50 came to 20.2 nM.

On to `N#Cc1cc(Cl)c2oc(-c3ccc(C(F)(F)F)cc3)nc2c1N` [Example 36, 4-Amino-7-chloro-5-cyano-2-(4-trifluoromethylphenyl)benzoxazole], for which the IC50 with PCSK9 protein came to 5.17 nM.

In the case of `N#Cc1ccc(N)c2nc(-c3ccc(C(F)(F)F)cc3)oc12` [Example 38], in the assay on PCSK9 protein, the IC50 amounted to 27.3 nM.

Consider `CN(C)c1nc2c(ccc3oc(-c4ccc(C(F)(F)F)cc4)nc32)s1` [Example 40, 7-Dimethylamino-2-(4-trifluoromethylphenyl)thiazolo[4,5-e]benzoxazole], for which the IC50 in the assay with PCSK9 protein came to 3.97 nM.

For the compound `NCc1cccc2oc(-c3ccc(C(F)(F)F)cc3)nc12` [Example 41, 4-Aminomethyl-2-(4-trifluoromethylphenyl)benzoxazole], the IC50 in the assay with PCSK9 protein came to 19.2 nM.

Regarding `[O-][n+]1ccc2c(ccc3oc(-c4ccc(C(F)(F)F)cc4)nc32)c1` [Example 43, 2-[4-(Trifluoromethyl)phenyl]oxazolo[4,5-f]isoquinoline 7-oxide], the IC50 with PCSK9 protein amounted to 25.6 nM.

For the compound `Clc1ccc2nc(-c3nc4c(Cl)cccc4o3)sc2c1` [Example 44, 4-Chloro-2-(6-chloro-benzothiazol-2-yl)benzoxazole], in the assay with PCSK9 protein, the IC50 is 13.9 nM.

Turning to `Nc1c(-c2ccc(C(F)(F)F)cc2)[nH]c2c(Cl)c(Cl)ccc12` [Example 45, 3-Amino-6,7-dichloro-2-(4-trifluoromethylphenyl)indole], in the assay on PCSK9 protein, the IC50 was 2.68 nM.

As to `CCN(CC)c1nc2c(ccc3cc(-c4ccc(C(F)(F)F)cc4)[nH]c32)o1` [Example 47, 2-Diethylamino-7-(4-trifluoromenthylphenyl)-8H-pyrrolo[2,3-e]benzoxazole], the IC50 in the assay on PCSK9 protein came to 45.4 nM.

For `CC(C)OC(=O)C(C)(C)Oc1ccc(C(=O)c2ccc(Cl)cc2)cc1` [Phenofibrate, reference compound], in assay [1] (dose 50 mg/kg), the “LDL cholesterol decreasing ratio (%)” value turned out to be 25.7%.

The values above are taken from US20170298081A1, “CONDENSED HETEROCYCLIC COMPOUND” (KASUMA PARTNERS INC., priority 2014, published 2017).
